Data taken from paper PMC7181660, “A novel specific PERK activator reduces toxicity and extends survival in Huntington's disease models” (Scientific Reports, 2020).
Where two headings read alike, the source gives them in different places.

Columns and labels:
Experiment in all cases: biochemical
Assay type in all cases: biochemical
panel of 391 kinases [1] = target: panel of 391 kinases (Homo sapiens, UniProt Q99683); settings: ASK1/MAP3K5, MK-28 1 µM, ATP 1 µM
panel of 391 kinases [2] = target: panel of 391 kinases (Homo sapiens, UniProt P42685); settings: FRK/PTK5, MK-28 1 µM, ATP 1 µM
panel of 391 kinases [3] = target: panel of 391 kinases (Homo sapiens, UniProt Q8WXR4); settings: MYO3b, MK-28 1 µM, ATP 1 µM
panel of 391 kinases [4] = target: panel of 391 kinases (Homo sapiens, UniProt P21802); settings: FGFR2, MK-28 1 µM, ATP 1 µM
panel of 391 kinases [5] = target: panel of 391 kinases (Homo sapiens, UniProt P09769); settings: FGR, MK-28 1 µM, ATP 1 µM
panel of 391 kinases [6] = target: panel of 391 kinases (Homo sapiens, UniProt Q9BWU1); settings: CDK19/cyclin C, MK-28 1 µM, ATP 1 µM
panel of 391 kinases [7] = target: panel of 391 kinases (Homo sapiens, UniProt O43318); settings: TAK1, MK-28 1 µM, ATP 1 µM
panel of 391 kinases [8] = target: panel of 391 kinases (Homo sapiens, UniProt P04629); settings: TRKA, MK-28 1 µM, ATP 1 µM
panel of 391 kinases [9] = target: panel of 391 kinases (Homo sapiens, UniProt P28482); settings: ERK2/MAPK1, MK-28 1 µM, ATP 1 µM
panel of 391 kinases [10] = target: panel of 391 kinases (Homo sapiens, UniProt Q15139); settings: PKCmu/PRKD1, MK-28 1 µM, ATP 1 µM
panel of 391 kinases [11] = target: panel of 391 kinases (Homo sapiens, UniProt P04626); settings: ERBB2/HER2, MK-28 1 µM, ATP 1 µM
panel of 391 kinases [12] = target: panel of 391 kinases (Homo sapiens, UniProt O14920); settings: IKKb/IKBKB, MK-28 1 µM, ATP 1 µM
panel of 391 kinases [13] = target: panel of 391 kinases (Homo sapiens, UniProt P50613); settings: CDK7/cyclin H, MK-28 1 µM, ATP 1 µM
panel of 391 kinases [14] = target: panel of 391 kinases (Homo sapiens, UniProt Q06418); settings: TYRO3/SKY, MK-28 1 µM, ATP 1 µM
panel of 391 kinases [15] = target: panel of 391 kinases (Homo sapiens, UniProt Q16620); settings: TRKB, MK-28 1 µM, ATP 1 µM
panel of 391 kinases [16] = target: panel of 391 kinases (Homo sapiens, UniProt O43353); settings: RIPK2, MK-28 1 µM, ATP 1 µM
panel of 391 kinases [17] = target: panel of 391 kinases (Homo sapiens, UniProt P45984); settings: JNK2, MK-28 1 µM, ATP 1 µM
panel of 391 kinases [18] = target: panel of 391 kinases (Homo sapiens, UniProt P37173); settings: TGFBR2, MK-28 1 µM, ATP 1 µM
panel of 391 kinases [19] = target: panel of 391 kinases (Homo sapiens, UniProt P22612); settings: PKAcg, MK-28 1 µM, ATP 1 µM
panel of 391 kinases [20] = target: panel of 391 kinases (Homo sapiens, UniProt P19784); settings: CK2a2, MK-28 1 µM, ATP 1 µM
panel of 391 kinases [21] = target: panel of 391 kinases (Homo sapiens, UniProt Q9H3Y6); settings: SRMS, MK-28 1 µM, ATP 1 µM
panel of 391 kinases [22] = target: panel of 391 kinases (Homo sapiens, UniProt Q16566); settings: CAMK4, MK-28 1 µM, ATP 1 µM
panel of 391 kinases [23] = target: panel of 391 kinases (Homo sapiens, UniProt P23443); settings: p70S6K/RPS6KB1, MK-28 1 µM, ATP 1 µM
panel of 391 kinases [24] = target: panel of 391 kinases (Homo sapiens, UniProt Q9Y4K4); settings: KHS/MAP4K5, MK-28 1 µM, ATP 1 µM
panel of 391 kinases [25] = target: panel of 391 kinases (Homo sapiens, UniProt Q13131); settings: compound at 1 µM, single dose in duplicates, 1 µM ATP; for remaining activity at 1 µM: read-out: % Enzyme Activity (relative to DMSO controls)
[26] = read-out: % Enzyme Activity (relative to DMSO controls)

CN(/N=C\c1ccc(O)c(O)c1)c1nc(-c2ccccc2)cc(-c2ccccc2)n1 [MK-28]
% Enzyme Activity (relative to DMSO controls) (panel of 391 kinases [1]): 97.76% | remaining activity at 1 µM (panel of 391 kinases [1]; [26]): 100% | % Enzyme Activity (relative to DMSO controls) (panel of 391 kinases [2]): 100.16% | remaining activity at 1 µM (panel of 391 kinases [2]; [26]): 101% | % Enzyme Activity (relative to DMSO controls) (panel of 391 kinases [3]): 107.45% | remaining activity at 1 µM (panel of 391 kinases [3]; [26]): 113% | % Enzyme Activity (relative to DMSO controls) (panel of 391 kinases [4]): 102.46% | remaining activity at 1 µM (panel of 391 kinases [4]; [26]): 103% | % Enzyme Activity (relative to DMSO controls) (panel of 391 kinases [5]): 99.92% | remaining activity at 1 µM (panel of 391 kinases [5]; [26]): 100% | % Enzyme Activity (relative to DMSO controls) (panel of 391 kinases [6]): 105.26% | remaining activity at 1 µM (panel of 391 kinases [6]; [26]): 108% | % Enzyme Activity (relative to DMSO controls) (panel of 391 kinases [7]): 97.66% | remaining activity at 1 µM (panel of 391 kinases [7]; [26]): 97.9% | % Enzyme Activity (relative to DMSO controls) (panel of 391 kinases [8]): 106.86% | remaining activity at 1 µM (panel of 391 kinases [8]; [26]): 108% | % Enzyme Activity (relative to DMSO controls) (panel of 391 kinases [9]): 105.81% | remaining activity at 1 µM (panel of 391 kinases [9]; [26]): 107% | % Enzyme Activity (relative to DMSO controls) (panel of 391 kinases [10]): 94.26% | remaining activity at 1 µM (panel of 391 kinases [10]; [26]): 95.3% | % Enzyme Activity (relative to DMSO controls) (panel of 391 kinases [11]): 98.41% | remaining activity at 1 µM (panel of 391 kinases [11]; [26]): 99.3% | % Enzyme Activity (relative to DMSO controls) (panel of 391 kinases [12]): 96.13% | remaining activity at 1 µM (panel of 391 kinases [12]; [26]): 96.9% | % Enzyme Activity (relative to DMSO controls) (panel of 391 kinases [13]): 106.19% | remaining activity at 1 µM (panel of 391 kinases [13]; [26]): 108% | % Enzyme Activity (relative to DMSO controls) (panel of 391 kinases [14]): 99.89% | remaining activity at 1 µM (panel of 391 kinases [14]; [26]): 100% | % Enzyme Activity (relative to DMSO controls) (panel of 391 kinases [15]): 96.28% | remaining activity at 1 µM (panel of 391 kinases [15]; [26]): 96.3% | % Enzyme Activity (relative to DMSO controls) (panel of 391 kinases [16]): 100.79% | remaining activity at 1 µM (panel of 391 kinases [16]; [26]): 102% | % Enzyme Activity (relative to DMSO controls) (panel of 391 kinases [17]): 90.48% | remaining activity at 1 µM (panel of 391 kinases [17]; [26]): 90.8% | % Enzyme Activity (relative to DMSO controls) (panel of 391 kinases [18]): 94.50% | remaining activity at 1 µM (panel of 391 kinases [18]; [26]): 102% | % Enzyme Activity (relative to DMSO controls) (panel of 391 kinases [19]): 92.94% | remaining activity at 1 µM (panel of 391 kinases [19]; [26]): 93.5% | % Enzyme Activity (relative to DMSO controls) (panel of 391 kinases [20]): 73.33% | remaining activity at 1 µM (panel of 391 kinases [20]; [26]): 78% | % Enzyme Activity (relative to DMSO controls) (panel of 391 kinases [21]): 102.96% | remaining activity at 1 µM (panel of 391 kinases [21]; [26]): 104% | % Enzyme Activity (relative to DMSO controls) (panel of 391 kinases [22]): 99.67% | remaining activity at 1 µM (panel of 391 kinases [22]; [26]): 101% | % Enzyme Activity (relative to DMSO controls) (panel of 391 kinases [23]): 97.34% | remaining activity at 1 µM (panel of 391 kinases [23]; [26]): 99% | % Enzyme Activity (relative to DMSO controls) (panel of 391 kinases [24]): 84.30% | remaining activity at 1 µM (panel of 391 kinases [24]; [26]): 86.9% | % Enzyme Activity (relative to DMSO controls) (panel of 391 kinases [25]; kinase AMPK(A1/B1/G1)): 95.82% | remaining activity at 1 µM (panel of 391 kinases [25]; kinase AMPK(A1/B1/G1)): 96.3% | % Enzyme Activity (relative to DMSO controls) (panel of 391 kinases [25]; kinase AMPK(A1/B1/G2)): 98.77% | remaining activity at 1 µM (panel of 391 kinases [25]; kinase AMPK(A1/B1/G2)): 101% | % Enzyme Activity (relative to DMSO controls) (panel of 391 kinases [25]; kinase AMPK(A1/B1/G3)): 86.51% | remaining activity at 1 µM (panel of 391 kinases [25]; kinase AMPK(A1/B1/G3)): 87% | % Enzyme Activity (relative to DMSO controls) (panel of 391 kinases [25]; kinase AMPK(A1/B2/G1)): 106.30% | remaining activity at 1 µM (panel of 391 kinases [25]; kinase AMPK(A1/B2/G1)): 108%
